pIC50, pKi: −log10 of the molar value. Like-named read-outs stand apart in the source and are kept apart here.
Tests used:
AAK1 = AAK1 (Homo sapiens, UniProt Q2M2I8); test: NAK family TR-FRET binding displacement assay; conditions: NAK family FRET screening
GAK [1] = target: T1, GAK (Homo sapiens, UniProt O14976); test: TR-FRET ligand-binding displacement assay
T1 sequence (O14976 1-1311): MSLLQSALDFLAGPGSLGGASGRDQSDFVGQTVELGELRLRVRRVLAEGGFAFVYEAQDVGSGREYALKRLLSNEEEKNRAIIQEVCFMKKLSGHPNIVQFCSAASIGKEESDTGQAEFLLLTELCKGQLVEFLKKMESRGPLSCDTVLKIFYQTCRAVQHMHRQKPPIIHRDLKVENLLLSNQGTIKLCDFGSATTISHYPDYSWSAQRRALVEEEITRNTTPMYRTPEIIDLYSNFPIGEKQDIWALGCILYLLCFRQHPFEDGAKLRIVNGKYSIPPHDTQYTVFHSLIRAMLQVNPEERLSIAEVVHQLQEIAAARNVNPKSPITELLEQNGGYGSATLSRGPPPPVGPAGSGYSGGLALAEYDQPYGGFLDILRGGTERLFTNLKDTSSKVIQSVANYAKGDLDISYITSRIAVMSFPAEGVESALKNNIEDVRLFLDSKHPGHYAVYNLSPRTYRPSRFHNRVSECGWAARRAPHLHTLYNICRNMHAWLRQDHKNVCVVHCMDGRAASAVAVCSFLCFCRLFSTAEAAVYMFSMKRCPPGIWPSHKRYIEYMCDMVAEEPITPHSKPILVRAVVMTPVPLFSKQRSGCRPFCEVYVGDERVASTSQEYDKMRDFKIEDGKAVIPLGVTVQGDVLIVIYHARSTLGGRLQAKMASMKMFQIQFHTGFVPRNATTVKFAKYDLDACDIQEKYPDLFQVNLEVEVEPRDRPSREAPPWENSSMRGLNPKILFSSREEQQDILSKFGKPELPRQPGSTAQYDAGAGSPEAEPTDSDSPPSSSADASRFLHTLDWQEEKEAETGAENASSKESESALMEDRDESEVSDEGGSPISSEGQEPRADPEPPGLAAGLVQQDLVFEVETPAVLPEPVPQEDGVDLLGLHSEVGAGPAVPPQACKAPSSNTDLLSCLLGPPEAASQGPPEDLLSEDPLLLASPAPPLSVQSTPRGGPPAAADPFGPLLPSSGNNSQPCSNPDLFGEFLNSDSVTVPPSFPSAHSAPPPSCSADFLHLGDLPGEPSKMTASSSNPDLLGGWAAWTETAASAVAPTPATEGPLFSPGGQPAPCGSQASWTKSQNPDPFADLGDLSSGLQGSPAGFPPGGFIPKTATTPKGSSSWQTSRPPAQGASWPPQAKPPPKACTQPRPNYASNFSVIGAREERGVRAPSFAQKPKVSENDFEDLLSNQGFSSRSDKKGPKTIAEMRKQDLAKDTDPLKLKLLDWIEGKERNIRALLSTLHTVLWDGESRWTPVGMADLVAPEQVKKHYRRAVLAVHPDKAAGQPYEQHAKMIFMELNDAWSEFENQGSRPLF

BMP2K = BMP2K (Homo sapiens, UniProt Q9NSY1); test: NAK family TR-FRET binding displacement assay
Sequence of BMP2K (Q9NSY1 whole entry): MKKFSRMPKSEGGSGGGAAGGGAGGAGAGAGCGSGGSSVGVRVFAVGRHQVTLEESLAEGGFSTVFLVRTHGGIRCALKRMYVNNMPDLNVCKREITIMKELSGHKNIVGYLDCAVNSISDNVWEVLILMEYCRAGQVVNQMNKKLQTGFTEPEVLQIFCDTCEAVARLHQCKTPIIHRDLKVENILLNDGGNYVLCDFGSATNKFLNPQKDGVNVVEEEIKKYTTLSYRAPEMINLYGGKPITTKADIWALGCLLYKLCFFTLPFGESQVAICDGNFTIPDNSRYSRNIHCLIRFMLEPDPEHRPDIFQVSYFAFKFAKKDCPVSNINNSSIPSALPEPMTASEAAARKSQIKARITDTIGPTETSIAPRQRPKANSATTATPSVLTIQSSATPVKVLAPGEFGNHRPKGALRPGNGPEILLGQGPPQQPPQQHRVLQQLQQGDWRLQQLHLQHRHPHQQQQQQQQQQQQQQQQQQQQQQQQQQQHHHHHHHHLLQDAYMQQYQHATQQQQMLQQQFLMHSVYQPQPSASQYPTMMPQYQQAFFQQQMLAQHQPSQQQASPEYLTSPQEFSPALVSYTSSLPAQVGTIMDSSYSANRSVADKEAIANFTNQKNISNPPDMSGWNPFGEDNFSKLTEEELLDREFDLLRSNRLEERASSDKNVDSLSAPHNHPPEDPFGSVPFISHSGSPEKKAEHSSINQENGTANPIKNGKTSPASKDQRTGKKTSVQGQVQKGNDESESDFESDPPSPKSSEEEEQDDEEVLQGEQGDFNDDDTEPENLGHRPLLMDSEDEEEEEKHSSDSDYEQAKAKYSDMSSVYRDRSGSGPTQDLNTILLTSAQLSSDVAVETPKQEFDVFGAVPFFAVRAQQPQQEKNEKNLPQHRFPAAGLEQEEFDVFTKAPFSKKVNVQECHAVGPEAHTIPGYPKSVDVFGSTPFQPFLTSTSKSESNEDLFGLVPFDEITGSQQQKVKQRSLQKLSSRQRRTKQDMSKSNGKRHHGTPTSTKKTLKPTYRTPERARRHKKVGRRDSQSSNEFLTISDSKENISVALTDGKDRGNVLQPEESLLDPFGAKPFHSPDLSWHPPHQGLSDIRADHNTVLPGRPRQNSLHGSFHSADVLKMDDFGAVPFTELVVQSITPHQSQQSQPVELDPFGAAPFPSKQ

STK16 = STK16 (Homo sapiens, UniProt O75716); test: NAK family TR-FRET binding displacement assay; conditions: NAK family FRET screening; read-out: Binding displacement assay STK16 Ki
Sequence of STK16 (O75716 whole entry): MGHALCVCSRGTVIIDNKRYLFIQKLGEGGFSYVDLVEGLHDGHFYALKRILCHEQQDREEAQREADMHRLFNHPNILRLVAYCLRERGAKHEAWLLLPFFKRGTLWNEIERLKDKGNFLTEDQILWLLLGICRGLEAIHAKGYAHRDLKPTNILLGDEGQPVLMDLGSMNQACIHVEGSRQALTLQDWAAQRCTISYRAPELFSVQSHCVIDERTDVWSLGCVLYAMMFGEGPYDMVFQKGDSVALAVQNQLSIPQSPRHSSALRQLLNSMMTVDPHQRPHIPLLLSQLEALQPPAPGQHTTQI

[2] = mouse liver microsome metabolic stability; conditions: mouse liver microsomes; for T1/2 Ratio: normalization with respect to internal control (propranolol); for half-life: mouse, T1/2 (min), mouse liver microsomes with NADPH, mean average, n = 2
Method: SGC-GAK-1 (1) was incubated with MLMs in the presence or absence of added NADPH, and the compound was quantified at various time points over an hour.
The metabolic stability of the 4-anilinoquinolines (8–13) were evaluated in MLMs (Table 1). Half-lives for metabolic clearance were normalized to propranolol in each experimental run to control for variations in the MLM preparations.

GAK [3] = target: T1, GAK; test: live cell NanoBRET target engagement assay; type: cell-based; conditions: for pIC50: nanoBRET, mean average, n = 2; for IC50 values in cells: live cell NanoBRET assay
Kinetic Solubility = type: physicochemical; conditions: pH 7.4, aqueous buffer, kinetic from dmso stock, PBS pH7.4 (100 µM)
[4] = TR-FRET assay, read-out: Biochemical GAK Ki
[5] = NAK family FRET screening, read-out: Binding displacement assay GAK Ki

Sequence of AAK1 (Q2M2I8 whole entry): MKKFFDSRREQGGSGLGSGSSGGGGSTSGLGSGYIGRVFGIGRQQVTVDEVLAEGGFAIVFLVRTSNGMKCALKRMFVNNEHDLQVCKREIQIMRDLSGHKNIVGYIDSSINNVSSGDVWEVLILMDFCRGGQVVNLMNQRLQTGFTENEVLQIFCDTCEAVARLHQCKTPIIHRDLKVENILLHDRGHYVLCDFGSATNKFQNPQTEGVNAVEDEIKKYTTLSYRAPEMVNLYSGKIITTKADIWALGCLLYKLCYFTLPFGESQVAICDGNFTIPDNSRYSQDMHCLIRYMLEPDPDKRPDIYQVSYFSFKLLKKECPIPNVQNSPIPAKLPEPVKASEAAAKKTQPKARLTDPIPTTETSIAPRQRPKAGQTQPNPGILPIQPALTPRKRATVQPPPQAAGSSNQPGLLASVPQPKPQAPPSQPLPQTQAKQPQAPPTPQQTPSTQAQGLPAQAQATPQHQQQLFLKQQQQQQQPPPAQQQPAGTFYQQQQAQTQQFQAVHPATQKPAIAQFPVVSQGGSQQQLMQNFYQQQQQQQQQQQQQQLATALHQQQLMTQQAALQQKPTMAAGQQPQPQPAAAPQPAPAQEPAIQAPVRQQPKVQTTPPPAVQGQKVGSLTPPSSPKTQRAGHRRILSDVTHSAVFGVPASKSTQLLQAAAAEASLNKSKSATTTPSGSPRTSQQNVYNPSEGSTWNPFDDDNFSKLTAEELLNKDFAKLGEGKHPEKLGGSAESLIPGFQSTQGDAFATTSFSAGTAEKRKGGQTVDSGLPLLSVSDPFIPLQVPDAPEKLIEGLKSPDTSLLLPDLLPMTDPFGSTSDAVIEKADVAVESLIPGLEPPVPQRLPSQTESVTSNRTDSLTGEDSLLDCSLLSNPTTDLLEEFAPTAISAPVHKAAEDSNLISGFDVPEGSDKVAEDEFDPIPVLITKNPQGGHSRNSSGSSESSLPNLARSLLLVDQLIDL

| Compound | pKi (AAK1) | pKi (GAK [1]; [4]) | pKi (BMP2K) | pKi (STK16) | T1/2 Ratio [2] | half-life [2] | pIC50 (GAK [3]) | IC50 values in cells (GAK [3]) | pKi (GAK [1]; [5]) | solubility kinetic (Kinetic Solubility; read-out: Kinetic Solubility µM) | solubility kinetic (Kinetic Solubility; read-out: Kinetic Solubility µg/mL) | T1/2 ratios fold higher than 9 [2] |
| --- | --- | --- | --- | --- | --- | --- | --- | --- | --- | --- | --- | --- |
| Fc1c(F)c(F)c(Nc2ccnc3ccc(C(F)(F)F)cc23)c(F)c1F [Compound 12] | < 4.00 | 6.06 | < 4.00 | 4.72 | 7.0 | 45.6 min |  |  |  |  |  |  |
| COc1cccc(Nc2ccnc3ccc(Br)cc23)c1OC [Compound 15, 6-Bromo-N-(2,3-dimethoxyphenyl)quinolin-4-amine] | 5.48 | 6.13 | 5.06 | < 4.00 | 0.12 | 1 min | < 5.30 |  |  |  |  |  |
| FC1(F)Oc2cccc(Nc3ccnc4ccc(Br)cc34)c2O1 [Compound 16, 6-Bromo-N-(2,2-difluorobenzo[d][1,3]dioxol-4-yl)quinolin-4-amine] | < 4.00 | 6.34 | < 4.00 | < 4.00 | 0.24 | 2 min | < 5.30 |  |  |  |  |  |
| Brc1ccc2nccc(Nc3cccc4c3CCO4)c2c1 [Compound 17, 6-Bromo-N-(2,3-dihydrobenzofuran-4-yl)quinolin-4-amine] | < 4.00 | 8.28 | < 4.00 | < 4.00 | 0.16 | 1.7 min | < 5.30 |  |  |  |  |  |
| Brc1ccc2nccc(Nc3cccc4c3OCC4)c2c1 [Compound 18, 6-Bromo-N-(2,3-dihydrobenzofuran-7-yl)quinolin-4-amine] | 5.46 | 7.54 | 4.96 | < 4.00 | 0.10 | 0.82 min | 5.60 |  |  |  |  |  |
| Brc1ccc2nccc(Nc3cccc4occc34)c2c1 [Compound 19, N-(Benzofuran-4-yl)-6-bromoquinolin-4-amine] | 5.72 | 8.72 | 4.96 | < 4.00 | 0.16 | 1.7 min | 6.74 | submicromolar |  |  |  |  |
| Brc1ccc2nccc(Nc3cccc4ccoc34)c2c1 [Compound 20, N-(Benzofuran-7-yl)-6-bromoquinolin-4-amine] | 5.34 | 8.37 | 4.80 | < 4.00 | 0.08 | 0.9 min | 6.24 | submicromolar |  |  |  |  |
| Brc1ccc2nccc(Nc3cccc4sccc34)c2c1 [Compound 26, N-(Benzo[b]thiophen-4-yl)-6-bromoquinolin-4-amine] | < 4.00 | 7.64 | < 4.00 | < 4.00 | 0.50 | 4.1 min | 5.48 |  |  |  |  |  |
| Brc1ccc2nccc(Nc3cccc4nc[nH]c34)c2c1 [Compound 27, N-(1H-Benzo[d]imidazol-7-yl)-6-bromoquinolin-4-amine] | 5.89 |  | 5.64 | 4.59 | 1.0 | 8.1 min | < 5.30 |  | 7.18 |  |  |  |
| Brc1ccc2nccc(Nc3cccc4nonc34)c2c1 [Compound 28, N-(6-Bromoquinolin-4-yl)benzo[c][1,2,5]oxadiazol-4-amine] | 5.34 | 7.39 | 4.89 | 4.96 | 0.15 | 1.2 min | 5.60 |  |  |  |  |  |
| Cn1nnc2c(Nc3ccnc4ccc(Br)cc34)cccc21 [Compound 30, 6-Bromo-N-(1-methyl-1H-benzo[d][1,2,3]triazol-4-yl)quinolin-4-amine] | 5.06 |  | 4.70 | < 4.00 | 0.09 | 0.73 min | < 5.30 |  | 5.55 |  |  |  |
| Cn1ncc2c(Nc3ccnc4ccc(Br)cc34)cccc21 [Compound 31, 6-Bromo-N-(1-methyl-1H-indazol-4-yl)quinolin-4-amine] | 4.89 |  | 4.80 | 4.55 | 0.10 | 0.8 min | < 5.30 |  | 5.44 |  |  |  |
| Fc1cc2cn[nH]c2cc1Nc1ccnc2ccc(Br)cc12 [Compound 36, 6-Bromo-N-(5-fluoro-1H-indazol-6-yl)quinolin-4-amine] |  |  |  |  | 2.2 | 14.8 min | < 5.30 |  |  | 2 µM | 0.7 µg/mL |  |
| O=C1NCc2ccc(Nc3ccnc4ccc(Br)cc34)cc21 [Compound 38, 6-[(6-Bromoquinolin-4-yl)amino]-2,3-dihydro-1H-isoindol-1-one] | 5.85 | 7.21 | 6.01 | 5.57 | 1.0 | 8.1 min | < 5.30 |  |  |  |  |  |
| O=c1[nH]c2ccc(Nc3ccnc4ccc(Br)cc34)cc2[nH]1 [Compound 39, 5-[(6-Bromoquinolin-4-yl)amino]-2,3-dihydro-1H-1,3-benzodiazol-2-one] | 5.72 | 6.44 | 4.66 | 4.68 | >25 | > 200 min | < 5.30 |  |  |  |  | ≥ 2 fold |
| O=c1[nH]c2ccc(Nc3ccnc4ccc(Br)cc34)cc2o1 [Compound 40, 6-[(6-Bromoquinolin-4-yl)amino]-2,3-dihydro-1,3-benzoxazol-2-one] | 5.62 | 6.17 | 5.31 | 5.06 | 6.9 | 55.9 min | < 5.30 |  |  |  |  | ≥ 2 fold |
| O=c1[nH]c2cc(Nc3ccnc4ccc(Br)cc34)ccc2o1 [Compound 41, 5-[(6-Bromoquinolin-4-yl)amino]-2,3-dihydro-1,3-benzoxazol-2-one] | 4.43 | 6.96 | 4.10 | < 4.00 | 3.4 | 27.8 min | < 5.30 |  |  |  |  | ≥ 2 fold |
| Cn1c(=O)[nH]c2cc(Nc3ccnc4ccc(Br)cc34)ccc21 [Compound 42, 5-[(6-Bromoquinolin-4-yl)amino]-1-methyl-2,3-dihydro-1H-1,3-benzodiazol-2-one] | 5.39 | 5.80 | 5.18 | 5.03 | 4.2 | 33.6 min | < 5.30 |  |  |  |  | ≥ 2 fold |
| O=S1(=O)Cc2ccc(Nc3ccnc4ccc(Br)cc34)cc2C1 [Compound 43, 5-((6-Bromoquinolin-4-yl)amino)-1,3-dihydrobenzo[c]thiophene 2,2-dioxide] | 5.48 | 5.77 | 5.19 | 5.10 | 1.9 | 15.6 min | < 5.30 |  |  |  |  |  |
